# Reference: paper PMC10041525, “New Dual Inhibitors of Bacterial Topoisomerases with Broad-Spectrum Antibacterial Activity and In Vivo Efficacy against Vancomycin-Intermediate Staphylococcus aureus” (Journal of Medicinal Chemistry, 2023)
# Like-named read-outs stand apart in the source and are kept apart here.
# Tests used:
# [1] = test system: E. faecalis ATCC 29212; test: IHMA QC MIC; format: cell-based
# Description: (§1) Supplement jm2c01905_si_004.xlsx, sheet "QC" | column: MIC [µg/mL]
# [2] = test system: H. influenzae ATCC 49247; test: IHMA QC MIC; format: cell-based
# Description: as §1
# [3] = test system: H. influenzae ATCC 49766; test: IHMA QC MIC; format: cell-based
# Description: as §1
# [4] = test system: N. gonorrhoeae ATCC 49226; test: IHMA QC MIC; format: cell-based; conditions: Neisseria gonorrhoeae, ATCC49226
# Description: as §1
# [5] = test system: S. pneumoniae (n = 12); test: MIC broth microdilution at IHMA Europe; format: cell-based; conditions: for MIC: Streptococcus pneumoniae, read-out: MIC
# [6] = test system: S. pneumoniae ATCC 49619; set-up: method as in earlier work; conditions: QC range for S. pneumoniae ATCC 49619, ref CLSI; cited from earlier work
# [7] = test system: H. influenzae ATCC 49247; set-up: method as in earlier work; conditions: QC range for H. influenzae ATCC 49247, ref CLSI; cited from earlier work
# [8] = test system: E. coli ATCC 25922; set-up: method as in earlier work; conditions: QC range for E. coli ATCC 25922, ref CLSI; cited from earlier work
# [9] = test system: P. aeruginosa ATCC 27853; set-up: method as in earlier work; conditions: QC range for P. aeruginosa ATCC 27853, ref CLSI; cited from earlier work
# [10] = Enterococcus faecalis, ATCC29212
# [11] = QC strain E. faecalis ATCC 29212, test date 2021-11-26
# [12] = Haemophilus influenzae, ATCC49247, QC strain H. influenzae ATCC 49247, test date 2021-11-11
# [13] = Haemophilus influenzae, ATCC49247, QC strain H. influenzae ATCC 49247, test date 2021-11-26
# [14] = Haemophilus influenzae, ATCC49766
# [15] = QC strain H. influenzae ATCC 49766, test date 2021-11-26
# [16] = Enterococcus faecalis, ATCC29212, QC strain E. faecalis ATCC 29212, test date 2021-11-11, read-out: MIC
# [17] = Haemophilus influenzae, ATCC49247, QC strain H. influenzae ATCC 49247, test date 2021-11-11, read-out: MIC
# [18] = Haemophilus influenzae, ATCC49247, QC strain H. influenzae ATCC 49247, test date 2021-11-26, read-out: MIC
# [19] = Haemophilus influenzae, ATCC49766, QC strain H. influenzae ATCC 49766, test date 2021-11-11, read-out: MIC
structure (smiles),measurement,setting,value
"Cc1[nH]c(C(=O)Nc2nc3c(N4[C@@H]5CC[C@H]4COC5)cc(C(=O)O)cc3s2)c(Cl)c1Cl [7h, 4-((1R,5S)-3-Oxa-8-azabicyclo[3.2.1]octan-8-yl)-2-(3,4-dichloro-5-methyl-1H-pyrrole-2-carboxamido)benzo[d]thiazole-6-carboxylic Acid]",MIC,[1]; [10],≤ 0.03 µg/mL
same,MIC,[1]; [11],"≤0,03 µg/mL"
same,MIC,[2]; [12],0.25 µg/mL
same,MIC,[2]; [13],0.06 µg/mL
same,MIC,"[2]; QC strain H. influenzae ATCC 49247, test date 2021-11-11",0.5 µg/mL
same,MIC,[3]; [14],0.25 µg/mL
same,MIC,[3]; [15],0.25 µg/mL
same,MIC,[4],≤ 0.03 µg/mL
same,Cumulative % at MIC,[5]; MIC 0.06 µg/mL,16.7%
same,Cumulative % at MIC,[5]; MIC […] µg/mL,100.0%
same,Cumulative % at MIC,[5]; MIC […],91.7%
same,MIC,[5]; S. pneumoniae IHMA N° 1775387,0.25 µg/mL
same,MIC,[5]; S. pneumoniae IHMA N° 1776057,0.5 µg/mL
same,MIC,[5]; S. pneumoniae IHMA N° 1785617,0.25 µg/mL
same,MIC,[5]; S. pneumoniae IHMA N° 1800765,0.25 µg/mL
same,MIC,[5]; S. pneumoniae IHMA N° 1811259,0.06 µg/mL
same,MIC,[5]; S. pneumoniae IHMA N° 1831562,0.25 µg/mL
same,MIC,[5]; S. pneumoniae IHMA N° 1902609,0.25 µg/mL
same,MIC,[5]; S. pneumoniae IHMA N° 1979675,0.25 µg/mL
same,MIC,[5]; S. pneumoniae IHMA N° 1991963,0.25 µg/mL
same,MIC,[5]; S. pneumoniae IHMA N° 2057487,0.25 µg/mL
same,MIC,[5]; S. pneumoniae IHMA N° 2073087,0.25 µg/mL
same,MIC,[5]; S. pneumoniae IHMA N° 2117109,0.06 µg/mL
same,"MIC, all isolates",[5]; n = 12,≤ 0.5 µg/mL
"CC1(C)S[C@@H]2[C@H](NC(=O)[C@H](N)c3ccccc3)C(=O)N2[C@H]1C(=O)O [Ampicillin, ampicillin]",MIC,[1]; [16],1 µg/mL
same,MIC,[1]; [11],1 µg/mL
same,MIC,[2]; [17],4 µg/mL
same,MIC,[2]; [18],4 µg/mL
same,MIC,[3]; [19],0.12 µg/mL
same,MIC,[3]; [15],0.12 µg/mL
same,"MIC, CLSI Range",[6],"0,06 - 0,25 µg/mL"
same,"MIC, CLSI Range",[7],2 to 8 µg/mL
same,"MIC, CLSI Range",[8],2 to 8 µg/mL
same,Cumulative % at MIC,[5]; MIC […] µg/mL,25.0%
same,No. of isolates at MIC,[5]; MIC […] µg/mL,2
same,Cumulative % at MIC,[5]; MIC […] µg/mL,33.3%
same,No. of isolates at MIC,[5]; MIC […] µg/mL,1
same,Cumulative % at MIC,[5]; MIC […] µg/mL,66.7%
same,No. of isolates at MIC,[5]; MIC […] µg/mL,4
same,No. of isolates at MIC,[5]; MIC […] µg/mL,2
same,Cumulative % at MIC,[5]; MIC ≤0.03 µg/mL,8.3%
same,No. of isolates at MIC,[5]; MIC ≤0.03 µg/mL,1
same,MIC,[5]; S. pneumoniae IHMA N° 1775387,4 µg/mL
same,MIC,[5]; S. pneumoniae IHMA N° 1776057,2 µg/mL
same,MIC,[5]; S. pneumoniae IHMA N° 1785617,8 µg/mL
same,MIC,[5]; S. pneumoniae IHMA N° 1800765,0.5 µg/mL
same,MIC,[5]; S. pneumoniae IHMA N° 1811259,2 µg/mL
same,MIC,[5]; S. pneumoniae IHMA N° 1831562,≤ 0.03 µg/mL
same,MIC,[5]; S. pneumoniae IHMA N° 1902609,4 µg/mL
same,MIC,[5]; S. pneumoniae IHMA N° 1979675,2 µg/mL
same,MIC,[5]; S. pneumoniae IHMA N° 1991963,1 µg/mL
same,MIC,[5]; S. pneumoniae IHMA N° 2057487,2 µg/mL
same,MIC,[5]; S. pneumoniae IHMA N° 2073087,8 µg/mL
same,MIC,[5]; S. pneumoniae IHMA N° 2117109,0.5 µg/mL
"C[C@@H](O)[C@H]1C(=O)N2C(C(=O)O)=C(SCCNC=N)C[C@H]12 [Imipenem, imipenem]",MIC,[1]; [16],1 µg/mL
same,MIC,[1]; [11],1 µg/mL
same,MIC,[2]; [17],0.25 µg/mL
same,MIC,[2]; [18],0.12 µg/mL
same,MIC,[3]; [19],0.5 µg/mL
same,MIC,[3]; [15],0.5 µg/mL
same,"MIC, CLSI Range",[6],"0,03 - 0,12 µg/mL"
same,"MIC, CLSI Range",[8],"0,06 - 0,25 µg/mL"
same,"MIC, CLSI Range",[9],1 to 4 µg/mL
same,Cumulative % at MIC,[5]; MIC 0.06 µg/mL,25.0%
same,No. of isolates at MIC,[5]; MIC 0.06 µg/mL,1
same,Cumulative % at MIC,[5]; MIC […] µg/mL,100.0%
same,No. of isolates at MIC,[5]; MIC […] µg/mL,1
same,Cumulative % at MIC,[5]; MIC ≤0.015 µg/mL,16.7%
same,No. of isolates at MIC,[5]; MIC ≤0.015 µg/mL,2
same,MIC,[5]; S. pneumoniae IHMA N° 1775387,0.25 µg/mL
same,MIC,[5]; S. pneumoniae IHMA N° 1776057,0.25 µg/mL
same,MIC,[5]; S. pneumoniae IHMA N° 1785617,0.25 µg/mL
same,MIC,[5]; S. pneumoniae IHMA N° 1800765,≤ 0.015 µg/mL
same,MIC,[5]; S. pneumoniae IHMA N° 1811259,0.12 µg/mL
same,MIC,[5]; S. pneumoniae IHMA N° 1831562,≤ 0.015 µg/mL
same,MIC,[5]; S. pneumoniae IHMA N° 1902609,0.12 µg/mL
same,MIC,[5]; S. pneumoniae IHMA N° 1979675,0.25 µg/mL
same,MIC,[5]; S. pneumoniae IHMA N° 1991963,1 µg/mL
same,MIC,[5]; S. pneumoniae IHMA N° 2057487,0.12 µg/mL
same,MIC,[5]; S. pneumoniae IHMA N° 2073087,0.25 µg/mL
same,MIC,[5]; S. pneumoniae IHMA N° 2117109,0.06 µg/mL
"C[C@H]1COc2c(N3CCN(C)CC3)c(F)cc3c(=O)c(C(=O)O)cn1c23.C[C@H]1COc2c(N3CCN(C)CC3)c(F)cc3c(=O)c(C(=O)O)cn1c23.O [Levofloxacin, levofloxacin]",MIC,[1]; [10],1 µg/mL
same,MIC,[1]; [11],1 µg/mL
same,MIC,[2]; [12],0.015 µg/mL
same,MIC,[2]; [13],0.015 µg/mL
same,MIC,[3]; [14],0.015 µg/mL
same,MIC,[3]; [15],0.015 µg/mL
same,"MIC, CLSI Range",[6],"0,5 - 2 µg/mL"
same,"MIC, CLSI Range",[7],"0,008 - 0,03 µg/mL"
same,"MIC, CLSI Range",[8],"0,008 - 0,06 µg/mL"
same,"MIC, CLSI Range",[9],"0,5 - 4 µg/mL"
same,No. of isolates at MIC,[5]; MIC […] µg/mL,5
same,MIC,[5]; S. pneumoniae IHMA N° 1775387,1 µg/mL
same,MIC,[5]; S. pneumoniae IHMA N° 1776057,0.5 µg/mL
same,MIC,[5]; S. pneumoniae IHMA N° 1785617,0.5 µg/mL
same,MIC,[5]; S. pneumoniae IHMA N° 1800765,1 µg/mL
same,MIC,[5]; S. pneumoniae IHMA N° 1811259,0.5 µg/mL
same,MIC,[5]; S. pneumoniae IHMA N° 1831562,1 µg/mL
same,MIC,[5]; S. pneumoniae IHMA N° 1902609,1 µg/mL
same,MIC,[5]; S. pneumoniae IHMA N° 1979675,0.5 µg/mL
same,MIC,[5]; S. pneumoniae IHMA N° 1991963,> 32 µg/mL
same,MIC,[5]; S. pneumoniae IHMA N° 2057487,1 µg/mL
same,MIC,[5]; S. pneumoniae IHMA N° 2073087,1 µg/mL
same,MIC,[5]; S. pneumoniae IHMA N° 2117109,0.5 µg/mL
O=C(O)c1cn(C2CC2)c2cc(N3CCNCC3)c(F)cc2c1=O [ciprofloxacin],MIC,"[4]; QC strain N. gonorrhoeae ATCC 49226, test date 2021-11-18, read-out: MIC",0.004 µg/mL
